Experimental findings from US5045566A, “Novel imidate insecticides” (ICI Americas Inc., priority 1989, dated 1991) are described below.

What all share (assay type): in vivo
Assay [1] relates to Black Bean Aphid [Aphis fabae (Scop.)]. Briefly: Black bean aphid spray test on nasturtium (BBA), 48 hours. The following applies: percent of test compound in sprayed solution. As for the experimental part:
The compounds in Tables 1 and 2 above were tested for insecticidal activity using the following testing procedures. LC50 values, based on the results of these tests and calculated according to dosage-mortality curves, are expressed in Table 3.
Black Bean Aphid [Aphis fabae (Scop.)]:
Nasturtium plants (Tropaeolum sp.) approximately 5 cm tall, were transplanted into sandy loam soil in small cups and infested with 25-50 black bean aphids of mixed ages. Twenty-four hours later they were sprayed to the point of runoff with 50-50 acetone-water solutions of the test compounds. Treated plants were held in the greenhouse and mortality was recorded after 48 hours. Test concentrations ranged from 0.05% downward. The LC-50 value is expressed below in Table 3 under the heading "BBA" in terms of percent of the test compound in the sprayed solution.

Assay [2] has as its system Housefly [Musca domestica]. Briefly: Housefly contact mortality in dishes (HF), 48 hours. Particulars: μg of test compound per 25 female flies. Summed up: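 Dose range started at 100 μg per 25 female flies and went downward. Insects (1-2 days old) contacted a dried acetone/peanut-oil deposit in dishes; LC50 values come from dosage-mortality curves at 48 h.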
The test system of assay [3] is Tobacco Budworm [Heliothis virescens (Fabricius)] eggs. Briefly: Tobacco budworm eggs (TBW-E). Particulars: percent in solution; 2-day old eggs. Summed up: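 Mortality of dipped eggs served as read-out, recorded after untreated controls hatched and began feeding. Treatments used acetone solutions from 0.1% downward, with eggs incubated at 78° F; LC50 is expressed as percent of compound in the solution.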

Assay [4] relates to Cabbage Looper [Trichoplusia ni (Hubner)]. Briefly: Cabbage looper leaf dip (CL), 3-5 days. Particulars: percent in solution, second-instar larvae. Summed up: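 Steps: dilute compound in 50-50 acetone-water from 0.1% downward; immerse cotyledon pieces 2-3 s and dry; place in humid petri dishes with five second-instar larvae; record mortality at 3-5 days. Dosage-mortality curves yield LC50 as percent in solution.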

With `Cc1ccc(Cl)c(N=C(OCc2cccc(Oc3ccccc3)c2)C(C)C)c1` [Compound 93], the “LC50 BBA” value in assay [1] was 0.003%. Besides, in assay [2], the “LC50 HF” value worked out at 64 µg. Also, in assay [3], the “LC50 TBW E (eggs)” value is more than 0.1%. Besides, the “LC50 CL” value in assay [4] stood at 0.005%.
The matching figures for `Cc1ccc(N=C(OCc2cccc(Oc3ccccc3)c2)C(C)C)c(Cl)c1` [Compound 94]: 0.001%, 44 µg, 0.075% and 0.0045%.
The matching figures for `COc1cc(N=C(OCc2cccc(Oc3ccccc3)c2)C(C)C)c(OC)cc1Cl` [Compound 99]: more than 0.05%, more than 100 µg, more than 0.1% and 0.016%.
The matching figures for `COc1ccc(OC)c(N=C(OCc2cccc(Oc3ccccc3)c2)C(C)C)c1Cl` [Compound 100]: more than 0.05%, 100 µg, more than 0.1% and 0.05%.
Regarding `CCSc1ccc(N=C(OCc2cccc(Oc3ccccc3)c2)C(C)C)cc1Cl` [Compound 103], the “LC50 BBA” value in assay [1] is 0.001%. The “LC50 HF” value in assay [2] was more than 100 µg. Further, in assay [3], the “LC50 TBW E (eggs)” value was more than 0.1%. Also, the “LC50 CL” value in assay [4] came out at 0.015%.
In the case of `CCOC(=O)c1ccc(N=C(OCc2cccc(Oc3ccccc3)c2)C(C)C)cc1Cl` [Compound 104], in assay [1], the “LC50 BBA” value is on record as 0.003%. Besides, the “LC50 HF” value in assay [2] is more than 100 µg. In addition, the “LC50 TBW E (eggs)” value in assay [3] was more than 0.1%. Also, in assay [4], the “LC50 CL” value is reported as 0.004%.
The matching figures for `CC(C)(C)C(=Nc1ccc(Cl)c([N+](=O)[O-])c1)OCc1cccc(Oc2ccccc2)c1` [Compound 105]: 0.05%, more than 100 µg, more than 0.1% and 0.018%.
The matching figures for `CC(C)(C)C(=Nc1ccc(Br)c(Cl)c1)OCc1cccc(Oc2ccccc2)c1` [Compound 106]: 0.01%, more than 100 µg, more than 0.1% and 0.014%.
The matching figures for `Cc1ccc(N=C(OCc2cccc(Oc3ccccc3)c2)C(C)(C)C)cc1Cl` [Compound 107]: 0.01%, more than 100 µg, more than 0.1% and 0.007%.
For `Cc1cc(Cl)ccc1N=C(OCc1cccc(Oc2ccccc2)c1)C(C)(C)C` [Compound 109], the “LC50 BBA” value in assay [1] was more than 0.05%. Also, the “LC50 HF” value in assay [2] was more than 100 µg. For the same molecule, in assay [3], the “LC50 TBW E (eggs)” value was more than 0.1%. Also, the “LC50 CL” value in assay [4] was found to be 0.002%.
The matching figures for `CC(C)(Cl)C(=Nc1ccc(Cl)c2ccccc12)OCc1cccc(Oc2ccccc2)c1` [Compound 111]: 0.003%, more than 100 µg, more than 0.1% and 0.1%.
On the same counts, the results for `Cc1cc(N=C(OCc2cccc(Oc3ccccc3)c2)C(C)C)ccc1Br` [Compound 127] are 0.001%, 58 µg, 0.04% and 0.01%.
Turning to `CC(C)C(=Nc1c(Br)cc(F)cc1Br)OCc1cccc(Oc2ccccc2)c1` [Compound 130], the “LC50 BBA” value in assay [1] is 0.05%. In addition, the “LC50 HF” value in assay [2] was more than 100 µg. In addition, the “LC50 TBW E (eggs)” value in assay [3] was more than 0.1%. In assay [4], the “LC50 CL” value was 0.005%.
With `Cc1cc(Br)ccc1N=C(OCc1cccc(Oc2ccccc2)c1)C(C)C` [Compound 133], the “LC50 BBA” value in assay [1] worked out at 0.003%. For the same molecule, the “LC50 HF” value in assay [2] was 66 µg. Further, the “LC50 TBW E (eggs)” value in assay [3] is given as 0.1%. Also, the “LC50 CL” value in assay [4] came out at 0.005%.
As for `CC(C)(C)C(=Nc1cccc(Br)c1)OCc1cccc(Oc2ccccc2)c1` [Compound 134], the “LC50 BBA” value in assay [1] is listed as more than 0.05%. In assay [2], the “LC50 HF” value was more than 100 µg. In addition, the “LC50 TBW E (eggs)” value in assay [3] is listed as more than 0.1%. For the same molecule, in assay [4], the “LC50 CL” value worked out at 0.015%.
On the same counts, the results for `CC(C)C(=Nc1cccc(I)c1)OCc1cccc(Oc2ccccc2)c1` [Compound 136] are 0.002%, 9 µg, 0.08% and 0.004%.
On the same counts, the results for `CSc1ccc(N=C(OCc2cccc(Oc3ccccc3)c2)C(Cl)Cl)cc1` [Compound 141] are 0.006%, 35 µg, more than 0.1% and less than 0.1%.
`Cc1cccc(N=C(OCc2cccc(Oc3ccccc3)c2)C(C)C)c1C` [Compound 148]: the “LC50 BBA” value in assay [1] turned out to be 0.0003%. For the same molecule, the “LC50 HF” value in assay [2] is 18 µg. For the same molecule, the “LC50 TBW E (eggs)” value in assay [3] amounted to 0.025%. The “LC50 CL” value in assay [4] is reported as 0.0025%.
Consider `COc1ccc(N=C(OCc2cccc(Oc3ccccc3)c2)C(C)C)c(C)c1` [Compound 149], for which, in assay [1], the “LC50 BBA” value worked out at 0.001%. In addition, in assay [2], the “LC50 HF” value came to 17 µg. Also, in assay [3], the “LC50 TBW E (eggs)” value turned out to be 0.05%. In addition, in assay [4], the “LC50 CL” value amounted to 0.007%.
The matching figures for `COc1ccc(C)cc1N=C(OCc1cccc(Oc2ccccc2)c1)C(C)C` [Compound 150]: 0.03%, 89 µg, more than 0.1% and 0.01%.
As for `CCCCc1ccc(N=C(OCc2cccc(Oc3ccccc3)c2)C(C)C)cc1` [Compound 152], the “LC50 BBA” value in assay [1] is listed as 0.01%. Also, in assay [2], the “LC50 HF” value is more than 100 µg. Also, in assay [3], the “LC50 TBW E (eggs)” value is reported as more than 0.1%. The “LC50 CL” value in assay [4] amounted to 0.009%.
The matching figures for `CCC(=Nc1ccc(CC)cc1)OCc1cccc(Oc2ccccc2)c1` [Compound 157]: 0.002%, 25 µg, more than 0.1% and 0.009%.
On the same counts, the results for `Cc1ccc(N=C(OCc2cccc(Oc3ccccc3)c2)C(C)C)cc1C` [Compound 158] are 0.0015%, 9 µg, 0.1% and 0.003%.
Take `CCOc1ccc(N=C(OCc2cccc(Oc3ccccc3)c2)C(C)(C)C)cc1` [Compound 164]: the “LC50 BBA” value in assay [1] is on record as more than 0.05%. In addition, the “LC50 HF” value in assay [2] is more than 100 µg. In addition, the “LC50 TBW E (eggs)” value in assay [3] was more than 0.1%. Also, the “LC50 CL” value in assay [4] came to 0.005%.
Regarding `CC(C)c1ccc(N=C(OCc2cccc(Oc3ccccc3)c2)C(C)(C)C)cc1` [Compound 165], in assay [1], the “LC50 BBA” value was more than 0.05%. Moreover, in assay [2], the “LC50 HF” value was more than 100 µg. Moreover, the “LC50 TBW E (eggs)” value in assay [3] is listed as more than 0.1%. In addition, the “LC50 CL” value in assay [4] worked out at 0.007%.
The matching figures for `CSc1cccc(N=C(OCc2cccc(Oc3ccccc3)c2)C(C)C)c1` [Compound 166]: 0.001%, 22 µg, more than 0.1% and 0.009%.
On to `Cc1ccc(N=C(OCc2cccc(Oc3ccccc3)c2)C(C)(C)C)cc1C` [Compound 167], for which the “LC50 BBA” value in assay [1] is more than 0.05%. Further, in assay [2], the “LC50 HF” value was more than 100 µg. Moreover, in assay [3], the “LC50 TBW E (eggs)” value is on record as more than 0.1%. The “LC50 CL” value in assay [4] came out at 0.02%.
The matching figures for `CCOC(=O)c1cccc(N=C(OCc2cccc(Oc3ccccc3)c2)C(C)(C)C)c1` [Compound 168]: more than 0.05%, more than 100 µg, more than 0.1% and 0.1%.
On the same counts, the results for `COc1ccc(N=C(OCc2cccc(Oc3ccccc3)c2)C(C)C)cc1OC` [Compound 169] are 0.003%, 10 µg, more than 0.1% and 0.009%.
On the same counts, the results for `CC(C)(C)C(=Nc1cccc([N+](=O)[O-])c1)OCc1cccc(Oc2ccccc2)c1` [Compound 175] are more than 0.05%, more than 100 µg, more than 0.1% and 0.018%.
On to `CC(C)C(=Nc1ccc(F)cc1)OCc1cccc(Oc2cccc(Cl)c2)c1` [Compound 205], for which the “LC50 BBA” value in assay [1] was determined as 0.03%. The “LC50 HF” value in assay [2] was determined as 50 µg. Moreover, the “LC50 TBW E (eggs)” value in assay [3] is on record as more than 0.1%. For the same molecule, in assay [4], the “LC50 CL” value amounted to 0.004%.
On the same counts, the results for `CC(C)C(=Nc1ccc(F)cc1)OCc1cccc(Oc2ccc(F)cc2F)c1` [Compound 206] are 0.03%, 50 µg, more than 0.1% and 0.0017%.
